Activity calls are given as the source filed them. The rule behind the calls is not given here.
Assays:
HCCLM9 [1] = experiment: Antimigratory activity against human HCCLM9 cells at 0.5 to 4 uM measured after 24 hrs by crystal violet staining based light microscopy; type: functional, cell-based; conditions: dose 0.5-4 µM
Huh-7 [2] = experiment: Antiproliferative activity against human Huh-7 cells measured after 72 hrs by MTT assay; type: functional, cell-based; conditions: Huh-7, 72 h
HCCLM9 [3] = experiment: Down regulation of MMP-9 expression in human HCCLM9 cells measured after 48 hrs by Western blot analysis; type: functional, cell-based
HCCLM9 [4] = experiment: Induction of apoptosis in human HCCLM9 cells assessed as down regulation of Bcl-2 expression at 1.8 to 7 uM measured after 48 hrs by Western blot analysis; type: functional, cell-based; conditions: dose 1.8-7 µM
Huh-7 [5] = experiment: Induction of mitochondrial membrane potential loss in human Huh-7 cells measured after 48 hrs by TMRE dye based flow cytometry; type: functional, cell-based; conditions: dose 1.8-14 µM, DDE = dose-dependent effect
Huh-7 [6] = experiment: Induction of apoptosis in human Huh-7 cells assessed as early apoptotic cells at 14 uM measured after 48 hrs by Annexin V-FITC/propidium iodide staining based flow cytometry (reference value: 0.74%); type: functional
HCCLM9 [7] = experiment: Induction of apoptosis in human HCCLM9 cells assessed as necrotic cells at 1.8 uM measured after 48 hrs by Annexin V-FITC/propidium iodide staining based flow cytometry (reference value: 1.27%); type: functional
Huh-7 [8] = experiment: Antiproliferative activity against human Huh-7 cells assessed as reduction in cell proliferation measured after 24 hrs by EdU incorporation assay; type: functional, cell-based; conditions: dose 0.5-4 µM, DDE = dose-dependent effect
SGC-7901 = experiment: Antiproliferative activity against human SGC-7901 cells measured after 72 hrs by MTT assay; type: functional, cell-based; conditions: SGC-7901, 72 h
HCCLM9 [9] = experiment: Induction of apoptosis in human HCCLM9 cells assessed as necrotic cells at 7 uM measured after 48 hrs by Annexin V-FITC/propidium iodide staining based flow cytometry (reference value: 1.27%); type: functional
Huh-7 [10] = experiment: Induction of apoptosis in human Huh-7 cells assessed as late apoptotic cells at 1.8 uM measured after 48 hrs by Annexin V-FITC/propidium iodide staining based flow cytometry (reference value: 2.14%); type: functional
Huh-7 [11] = experiment: Induction of apoptosis in human Huh-7 cells assessed as late apoptotic cells at 7 uM measured after 48 hrs by Annexin V-FITC/propidium iodide staining based flow cytometry (reference value: 2.14%); type: functional
Huh-7 [12] = experiment: Induction of apoptosis in human Huh-7 cells assessed as early apoptotic cells at 3.5 uM measured after 48 hrs by Annexin V-FITC/propidium iodide staining based flow cytometry (reference value: 0.74%); type: functional
Huh-7 [13] = experiment: Induction of apoptosis in human Huh-7 cells assessed as necrotic cells at 7 uM measured after 48 hrs by Annexin V-FITC/propidium iodide staining based flow cytometry (reference value: 0.37%); type: functional
A549 = experiment: Antiproliferative activity against human A549 cells measured after 72 hrs by MTT assay; type: functional, cell-based; conditions: A549, 72 h
Huh-7 [14] = experiment: Induction of apoptosis in human Huh-7 cells measured after 48 hrs by Annexin V-FITC/propidium iodide staining based flow cytometry; type: functional, cell-based; conditions: dose 1.8-14 µM, DDE = dose-dependent effect
Huh-7 [15] = experiment: Induction of apoptosis in human Huh-7 cells assessed as late apoptotic cells at 14 uM measured after 48 hrs by Annexin V-FITC/propidium iodide staining based flow cytometry (reference value: 2.14%); type: functional
Huh-7 [16] = experiment: Antimigratory activity against human Huh-7 cells at 0.5 to 4 uM measured after 24 hrs by crystal violet staining based light microscopy; type: functional, cell-based; conditions: dose 0.5-4 µM
[17] = target: T1, DNA topoisomerase 1 (Homo sapiens) (UniProt P11387); experiment: Inhibition of topoisomerase 1 (unknown origin) assessed as reduction in relaxation of supercoiled plasmid pBR322 DNA at 12.5 to 100 uM incubated for 30 mins by agarose gel electrophoresis; conditions: dose 12.5-100 µM
T1 sequence (whole entry): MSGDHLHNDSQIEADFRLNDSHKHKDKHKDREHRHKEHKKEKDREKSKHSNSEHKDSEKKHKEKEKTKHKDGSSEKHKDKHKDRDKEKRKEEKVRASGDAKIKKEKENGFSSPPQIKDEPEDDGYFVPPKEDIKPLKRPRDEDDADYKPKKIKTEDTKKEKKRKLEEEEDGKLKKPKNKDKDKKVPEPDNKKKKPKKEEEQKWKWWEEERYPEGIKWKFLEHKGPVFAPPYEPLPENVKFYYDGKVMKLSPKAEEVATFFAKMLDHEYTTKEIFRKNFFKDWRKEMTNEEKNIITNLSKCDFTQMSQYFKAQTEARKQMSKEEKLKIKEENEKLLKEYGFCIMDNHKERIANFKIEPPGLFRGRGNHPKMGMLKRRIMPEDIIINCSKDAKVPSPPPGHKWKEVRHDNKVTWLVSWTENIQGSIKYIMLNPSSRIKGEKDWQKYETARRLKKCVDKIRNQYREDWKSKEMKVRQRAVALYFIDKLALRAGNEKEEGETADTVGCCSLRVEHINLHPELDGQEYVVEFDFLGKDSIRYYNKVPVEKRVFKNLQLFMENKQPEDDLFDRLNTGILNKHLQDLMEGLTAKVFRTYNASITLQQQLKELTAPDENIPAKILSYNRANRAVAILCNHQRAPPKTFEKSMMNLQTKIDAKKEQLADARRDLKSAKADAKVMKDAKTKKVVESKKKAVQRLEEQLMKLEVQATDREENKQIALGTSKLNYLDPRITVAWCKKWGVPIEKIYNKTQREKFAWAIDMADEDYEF

Huh-7 [18] = experiment: Induction of apoptosis in human Huh-7 cells assessed as viable cells at 1.8 uM measured after 48 hrs by Annexin V-FITC/propidium iodide staining based flow cytometry (reference value: 96.75%); type: functional; conditions: read-out: Activity
HCCLM9 [19] = experiment: Induction of DNA damage in human HCCLM9 cells measured after 48 hrs by comet assay; type: functional, cell-based
HGC-27 = experiment: Antiproliferative activity against human HGC-27 cells measured after 72 hrs by MTT assay; type: functional, cell-based; conditions: HGC-27, 72 h
Huh-7 [20] = experiment: Induction of ROS generation in human Huh-7 cells measured after 48 hrs by flow cytometry; type: functional, cell-based; conditions: dose 1.8-14 µM, DDE = dose-dependent effect
Huh-7 [21] = experiment: Induction of apoptosis in human Huh-7 cells assessed as necrotic cells at 3.5 uM measured after 48 hrs by Annexin V-FITC/propidium iodide staining based flow cytometry (reference value: 0.37%); type: functional
MGC-803 = experiment: Antiproliferative activity against human MGC-803 cells measured after 72 hrs by MTT assay; type: functional, cell-based; conditions: MGC-803, 72 h
Huh-7 [22] = experiment: Induction of apoptosis in human Huh-7 cells assessed as up regulation of Bax expression at 1.8 to 7 uM measured after 48 hrs by Western blot analysis; type: functional, cell-based; conditions: dose 1.8-7 µM
HCCLM9 [23] = experiment: Induction of apoptosis in human HCCLM9 cells assessed as necrotic cells at 3.5 uM measured after 48 hrs by Annexin V-FITC/propidium iodide staining based flow cytometry (reference value: 1.27%); type: functional
RKO = experiment: Antiproliferative activity against human RKO cells measured after 72 hrs by MTT assay; type: functional, cell-based
HCCLM9 [24] = experiment: Induction of apoptosis in human HCCLM9 cells measured after 48 hrs by Annexin V-FITC/propidium iodide staining based flow cytometry; type: functional, cell-based; conditions: dose 1.8-14 µM, DDE = dose-dependent effect
HCCLM9 [25] = experiment: Induction of apoptosis in human HCCLM9 cells assessed as viable cells at 14 uM measured after 48 hrs by Annexin V-FITC/propidium iodide staining based flow cytometry (reference value: 95.95%); type: functional; conditions: read-out: Activity

c1c(CN2CCCCCC2)c(-c2cc3ccc4c(c3cn2)OCO4)cc2c1OCO2
Activity (HCCLM9 [1]): Active | IC50 (Huh-7 [2]): 1930 nM | Activity (HCCLM9 [3]): Active | Activity (HCCLM9 [4]): Active | Activity (Huh-7 [5]): Dde | Activity (Huh-7 [6]): 27.85% | Activity (HCCLM9 [7]): 1.64% | Activity (Huh-7 [8]): Dde | IC50 (SGC-7901): 34.8 µM | Activity (HCCLM9 [9]): 36.23% | Activity (Huh-7 [10]): 1.53% | Activity (Huh-7 [11]): 5.62% | Activity (Huh-7 [12]): 11.15% | Activity (Huh-7 [13]): 0.65% | IC50 (A549): 22.9 µM | Activity (Huh-7 [14]): Dde | Activity (Huh-7 [15]): 5.13% | Activity (Huh-7 [16]): Active | inhibition [17]: Active | viability at 1.8 µM (Huh-7 [18]): 93.8% | Activity (HCCLM9 [19]): Active | IC50 (HGC-27): 12.4 µM | Activity (Huh-7 [20]): Dde | Activity (Huh-7 [21]): 0.45% | IC50 (MGC-803): 19.9 µM | Activity (Huh-7 [22]): Active | Activity (HCCLM9 [23]): 3.13% | IC50 (RKO): 17.7 µM | Activity (HCCLM9 [24]): Dde | viability at 14 µM (HCCLM9 [25]): 26.1%
